Values of other authors, collected in patent publication US5714342A, “Compositions for the detection of protease in biological samples and methods of use therefo” (OncoImmunin, Inc., priority 1995, dated 1998).

Conditions: literature (Forster and Konig 1957; Arbeloa and Ojeda 1982); cited from earlier work

SMILES: O=C1OC2(c3ccccc31)c1cc(Br)c(O)c(Br)c1Oc1c2cc(Br)c(O)c1Br [Eosin]
- concentration at which ground-state dimerization of free dye in solution was observed: higher than 2.8×10^-2 M

SMILES: CCN(CC)c1ccc2c(-c3ccccc3C(=O)O)c3ccc(=[N+](CC)CC)cc-3oc2c1 [Rhodamine B]
- concentration at which ground-state dimerization of free dye in solution was observed: higher than 6×10^-4 M

SMILES: O=C1OC2(c3ccc(O)cc3Oc3cc(O)ccc32)c2ccccc21 [fluorescein]
- concentration at which ground-state dimerization of free dye in solution was observed: > 0.74 M
